# Laboratory results reported in publication PMC4792161, “A novel pyrazole derivative protects from ovariectomy-induced osteoporosis through the inhibition of NADPH oxidase” (Scientific Reports, 2016).
# Structures can show the parent of a compound that is named as a salt. Marks after values point to notes of the source that are not given here.
# How the values were obtained:
# [1] = system: OVX-induced osteoporotic ddY mice; experiment: Femur histopathology-histomorphometry in OVX mice; type: in vivo
# Procedure: Risedronate sodium (2.5 mg/kg) served as a reference compound. […] Histopathology and histomorphometrical analyses including trabecular bone volume (BV/TV), trabecular bone number (Tb.N), trabecular bone length (Tb.Le), trabecular bone thickness (Tb.Th), cortical bone thickness (Ct.Th), OC number (N.Oc), bone mineral density (BMD) and bone strength (failure load, FL) were conducted.
# The study was reviewed and approved by the Institutional Animal Care and Use Committee (IACUC) of Center for Laboratory Animal Sciences, Ewha Industry-University Cooperation Foundation, Ewha Womans University. Experimental methods were carried out in accordance with the approved ethic guidelines in Ewha Industry-University Cooperation Foundation, Ewha Womans University. Beginning 4 weeks after OVX, the female ddY mice received 2.5, 5, 10, or 20 mg/kg of #18–278, 2.5 mg/kg of risedronate, or vehicle once daily for 28 days. The Changes in body weight, bone weight, bone mineral density (BMD), failure load (FL), bone calcium (Ca), inorganic phosphorus (P) contents, histology and histomorphology were monitored. Serum osteocalcin and bone specific alkaline phosphatase (bALP) were monitored in mice receiving Ewha-18278.
# The left side of femur of each mouse was separated and fixed in 10% neutral buffered formalin and decalcified in a solution comprised of 24.4% formic acid and 0.5N sodium hydroxide for 5 days, with spent solution replaced with fresh solution each day. Each sample was embedded in paraffin, sectioned to a thickness of 3–4 μm and exposed to with Hematoxylin & Eosin (H&E) stain. Histomorphometry was conducted as for bone mass and structure with bone resorption in a uniform area of epiphyseal regions of femur (growth plate regions were excluded). Cortical bone thickness was measured in the mid-shaft region of the femur.
# Mature OCs = experiment: Bone resorption assay on dentine discs; type: cell-based, C57BL/6 mice; details: 10 μM, 24 hours
# Procedure: The cells were removed from the dentine discs and the dentine discs were stained with hematoxylin. Pit areas were photographed under a light microscope and analyzed using Image-Pro Plus version 4.5 software (Media-Cybernetics, Rockville, MD, USA). […]
# Scale bar, 500 μm. (C,D) Mature OCs were generated with M-CSF and RANKL, cells were seeded onto dentine discs and further cultured with […]
# Cells were stained with hematoxylin for visualization of pit formation (C). The area of resorption pits were measured with Image-Pro Plus 4.5 (D). Scale bar, 500
# μm. Data represent mean ± S.D., n.s., not significant. […]
# BMMs = experiment: RANKL-induced OC differentiation, TRAP staining; type: cell-based, C57BL/6 mice; details: M-CSF 30 ng/ml, RANKL 100 ng/ml, dose-dependent
# Procedure: RANKL-induced ROS generation was monitored by confocal microscopic analysis of DCF fluorescence. Data represent three repeated experiments and are shown as mean ± SD (n = 3). […] (D) TRAP^+ MNCs containing more than 3 nuclei were counted. Data represent mean ± S.D., *P < 0.005. Scale bar, 500 μm.
# Primary BMMs were obtained from 6- to 8-week-old male C57BL/6 mice (The Jackson Laboratory, Bar Harbor, […], USA) as described previously. In brief, bone marrow cells were cultured in α-MEM (HyClone, Logan, UT, USA) containing 10% fetal bovine serum (FBS) (HyClone, Logan UT, USA) with 30 ng/ml macrophage-colony stimulating facor (M-CSF) for 3 days to obtain OC precursor cells of monocyte/macrophage lineage. For OC differentiation, the precursor cells were treated with 100 ng/ml RANKL in the presence of M-CSF with or without for 3–4 days. OCs were fixed with 4% paraformaldehyde and stained for tartrate-resistant acid phosphatase (TRAP) using a leukocyte acid phosphatase cytochemistry kit (Sigma-Aldrich, St. Louis, MO, USA) according to the manufacturer’s instructions. TRAP-positive multinucleated cells (TRAP^+ MNCs) containing three or more nuclei were counted as OC-like cells.
# [2] = system: OVX-induced osteoporotic ddY mice; experiment: Tibia weights (wet, dry, ash) in OVX mice; type: in vivo
# Procedure: The right sides of femur and tibia were weighed and then dried at 120 °C for 8 hours. The dried bones were carbonized at 800 °C for 6 hours in a furnace (Daihan Scientific, Korea) to detect ash absolute weights, after measurement of BMD and failure load. To reduce the individual body weight differences, the relative weight (%) was calculated using body weight at sacrifice and absolute weight as [Relative bone weights = (Absolute bone weight/Body weight at sacrifice) ×100]. In addition, ashed bones were ground and dissolved in nitric acid. In diluted solution, Ca and P contents were calculated (mg/g bone) using an orthocresolphthalein complex and enzyme methods, respectively. The Ca/P ratio (%) was calculated as (Tibia Ca contents/Tibia P contents) ×100.
# Supplementary Table S4. Tibia Weights in OVX Mice Values are expressed mean ± S.D. of eight mice Risedronate sodium was administered at 2.5mg/kg levels a p<0.01 as compared with sham control […]
# material OVX = ovariectomy
# Groups Tibia absolute weights (g) Tibia relative weights (% of body weight)Wet Dry Ash Wet Dry Ash
# glucose oxidase = glucose oxidase (Aspergillus niger, UniProt P13006); experiment: Glucose oxidase assay (lucigenin); type: biochemical
# glucose oxidase, sequence (P13006 17-605, species assumed): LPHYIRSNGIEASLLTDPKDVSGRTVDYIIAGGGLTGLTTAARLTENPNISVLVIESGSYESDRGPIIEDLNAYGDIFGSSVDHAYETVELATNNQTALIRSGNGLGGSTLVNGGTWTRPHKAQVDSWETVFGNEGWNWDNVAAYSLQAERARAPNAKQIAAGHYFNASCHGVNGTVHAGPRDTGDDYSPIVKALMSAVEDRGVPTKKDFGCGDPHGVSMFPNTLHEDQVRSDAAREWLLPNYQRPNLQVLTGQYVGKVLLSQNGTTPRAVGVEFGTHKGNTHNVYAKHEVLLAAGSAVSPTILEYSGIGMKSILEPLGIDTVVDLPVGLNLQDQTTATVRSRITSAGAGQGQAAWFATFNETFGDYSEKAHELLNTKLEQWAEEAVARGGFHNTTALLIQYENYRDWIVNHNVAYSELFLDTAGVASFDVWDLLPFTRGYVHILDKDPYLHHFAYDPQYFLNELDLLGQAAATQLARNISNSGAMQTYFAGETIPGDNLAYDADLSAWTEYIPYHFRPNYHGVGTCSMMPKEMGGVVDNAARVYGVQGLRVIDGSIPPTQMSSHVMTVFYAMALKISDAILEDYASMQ
# Procedure: Glucose oxidase activity was measured by lucigenin. Reaction mixtures contained 0.75 mM glucose, 0.25 mg/ml glucose oxidase, and 0.4 mM lucigenin with the indicated inhibitor (0–20μM). Luminescence was measured over 30 min at 37 °C with luminometor (DTX800, Beckman coulter).
# [3] = 2.5 mg/kg oral once daily 28 days
# [4] = 5 mg/kg oral once daily 28 days
# [5] = 10 mg/kg oral once daily 28 days
# [6] = 20 mg/kg oral once daily 28 days
compound,measurement,setting,value
"CCCc1c(-c2ccccc2)nn(-c2ccccn2)c1O [Ewha-18278, 3-phenyl-1-(pyridin-2-yl)-4-propyl-1H-5-hydroxypyrazole HCl]",BV/TV (trabecular bone volume),[1]; [3],23.62 ± 3.63 ^a %
same,Ct.Th (cortical bone thickness),[1]; [3],136.48 ± 10.32 ^a μm
same,"N.OC/BS (osteoclast cell number, N/epiphyseal)",[1]; [3],13.75 ± 2.25 ^e numbers
same,"Tb.N (trabecular bone number, N/epiphyseal)",[1]; [3],9.75 ± 1.67 ^e numbers
same,Tb.Th (trabecular bone thickness),[1]; [3],40.98 ± 5.94 ^a μm
same,BV/TV (trabecular bone volume),[1]; [4],29.06 ± 2.72 ^ac %
same,Ct.Th (cortical bone thickness),[1]; [4],159.04 ± 13.45 ^ac μm
same,"N.OC/BS (osteoclast cell number, N/epiphyseal)",[1]; [4],10.63 ± 2.77 ^eg numbers
same,"Tb.N (trabecular bone number, N/epiphyseal)",[1]; [4],11.25 ± 1.04 ^eh numbers
same,Tb.Th (trabecular bone thickness),[1]; [4],52.98 ± 8.96 ^ac μm
same,BV/TV (trabecular bone volume),[1]; [5],33.63 ± 3.51 ^c %
same,Ct.Th (cortical bone thickness),[1]; [5],165.52 ± 12.06 ^ac μm
same,"N.OC/BS (osteoclast cell number, N/epiphyseal)",[1]; [5],6.63 ± 1.30 ^eg numbers
same,"Tb.N (trabecular bone number, N/epiphyseal)",[1]; [5],15.38 ± 1.60 ^eg numbers
same,Tb.Th (trabecular bone thickness),[1]; [5],68.14 ± 11.23 ^ac μm
same,BV/TV (trabecular bone volume),[1]; [6],34.07 ± 3.89 ^c %
same,Ct.Th (cortical bone thickness),[1]; [6],198.06 ± 12.51 ^c μm
same,"N.OC/BS (osteoclast cell number, N/epiphyseal)",[1]; [6],5.63 ± 1.41 ^fg numbers
same,"Tb.N (trabecular bone number, N/epiphyseal)",[1]; [6],16.63 ± 1.19 ^eg numbers
same,Tb.Th (trabecular bone thickness),[1]; [6],71.98 ± 12.20 ^ac μm
same,bone resorption activity of OCs,Mature OCs,did not affect
same,formation of TRAP-positive OCs with >3 nuclei,BMMs,inhibited the formation of TRAP-positive OCs
same,"Tibia absolute weights, Ash",[2]; [3],0.027 g
same,"Tibia absolute weights, Dry",[2]; [3],0.051 g
same,"Tibia absolute weights, Wet",[2]; [3],0.070 g
same,"Tibia absolute weights, Ash",[2]; [4],0.030 g
same,"Tibia absolute weights, Dry",[2]; [4],0.051 g
same,"Tibia absolute weights, Wet",[2]; [4],0.071 g
same,"Tibia absolute weights, Ash",[2]; [5],0.030 g
same,"Tibia absolute weights, Dry",[2]; [5],0.052 g
same,"Tibia absolute weights, Wet",[2]; [5],0.071 g
same,"Tibia absolute weights, Ash",[2]; [6],0.032 g
same,"Tibia absolute weights, Dry",[2]; [6],0.052 g
same,"Tibia absolute weights, Wet",[2]; [6],0.071 g
same,inhibitory activity on glucose oxidase,glucose oxidase,no inhibitory activities
